This is an account of results in patent US12428415B2, “Matriptase 2 inhibitors and uses thereof” (Disc Medicine, Inc., priority 2018, dated 2025).

Each structure is given as a SMILES string.

The test concerns the target T1, Human Recombinant Matriptase 2 (Homo sapiens, UniProt Q8IU80).
T1 construct: purchased Enzo Life Sciences (an in-house preparation was also used) ALX-201-752-1
T1 sequence (Q8IU80 1-811): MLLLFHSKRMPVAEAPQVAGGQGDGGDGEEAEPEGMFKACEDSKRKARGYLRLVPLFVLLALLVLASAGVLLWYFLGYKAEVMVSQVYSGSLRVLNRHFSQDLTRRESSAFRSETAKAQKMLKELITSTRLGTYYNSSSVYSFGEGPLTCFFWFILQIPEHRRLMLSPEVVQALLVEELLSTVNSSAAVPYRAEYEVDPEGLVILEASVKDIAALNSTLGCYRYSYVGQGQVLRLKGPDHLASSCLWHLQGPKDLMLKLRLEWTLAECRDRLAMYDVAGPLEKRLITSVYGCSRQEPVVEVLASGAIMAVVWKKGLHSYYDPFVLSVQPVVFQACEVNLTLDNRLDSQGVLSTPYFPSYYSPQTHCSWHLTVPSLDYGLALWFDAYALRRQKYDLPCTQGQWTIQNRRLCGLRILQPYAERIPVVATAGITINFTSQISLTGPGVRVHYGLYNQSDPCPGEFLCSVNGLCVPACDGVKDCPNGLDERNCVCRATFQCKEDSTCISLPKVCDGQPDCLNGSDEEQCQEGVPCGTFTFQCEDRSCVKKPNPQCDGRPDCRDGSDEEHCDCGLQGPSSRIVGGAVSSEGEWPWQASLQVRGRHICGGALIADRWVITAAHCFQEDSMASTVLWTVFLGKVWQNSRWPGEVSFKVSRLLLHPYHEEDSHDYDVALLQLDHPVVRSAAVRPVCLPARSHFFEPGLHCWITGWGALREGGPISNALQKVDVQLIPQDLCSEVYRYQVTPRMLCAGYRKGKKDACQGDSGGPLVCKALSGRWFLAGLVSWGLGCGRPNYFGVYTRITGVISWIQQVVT
Briefly: Matriptase 2 fluorescence based inhibition assay, Method A (100 mM TRIS pH 9, 1 mg/mL BSA). Type of test: biochemical. The settings on record: 1 uM; Assay Used A; read-out: Mar-2 % inhibition at 1 uM. On the procedure: Test compounds were evaluated for their potential to inhibit Human Recombinant Matriptase 2 (in-house and commercial protein from Enzo Life Sciences—cat log -ALX-201-752-1) using fluorescence based assay. The concentration of Recombinant Matriptase 2 and the substrate used in the assay was: 7 nM (commercial) and 15 nM (Inhouse Matriptase 2) and 100 μM (Boc-Gln-Ala-Arg-7-amido-4-methyl coumarin hydrobromide—Cat log: B4153-Sigma) respectively. The assay buffer used was 100 mM TRIS pH 9, 1 mg/mL BSA. The assay was performed using 384 well black flat bottom plate from grenier (Cat log: 781076) at 25° C. The enzyme and compound was preincubated for 30 mins, plate was read 60 mins after substrate addition at wavelength Ex: 360/Em: 480 nm. The final assay volume was 20 μl. Stock solution of compounds were initially prepared in DMSO and appropriate dilutions were made for screening and IC50 determination (final DMSO conc in the assay was 1%). All the measurements were carried out using the Spectramax M5, Molecular devices. The compounds were screened at 1 and 10 μM concentration and IC50 was determined for the interested compounds.
To determine IC50 values, dose response curves were generated by plotting percentage inhibition as a function of inhibitor concentration and the data was fitted to sigmoidal non-linear regression equation (variable slope) using Graph Pad prism software V7.

`N=C(N)c1ccc2cc(C(=O)NC[C@H]3CCCNC3)n(CCS(=O)(=O)c3ccccc3)c2c1` [Compound I-51]: the inhibition at 1 µM lay within 25 to 50%.

With `N=C(N)c1ccc2cc(C(=O)NCC3CCC(O)CC3)n(CCS(=O)(=O)c3ccccc3)c2c1` (centres unmarked) [Compound I-52], the inhibition at 1 µM was 0 to 25%.

Turning to `N=C(N)c1ccc2cc(C(=O)NCC3CCC(F)(F)CC3)n(CCS(=O)(=O)c3ccccc3)c2c1` [Compound I-54], the inhibition at 1 µM lay within 0 to 25%. As for `N=C(N)c1ccc2c([N+](=O)[O-])c(C(=O)N[C@H]3CC[C@H](N)CC3)n(CCS(=O)(=O)c3ccccc3)c2c1` [Compound I-55, N-((1r,4r)-4-Aminocyclohexyl)-6-carbamimidoyl-3-nitro-1-(2-(phenylsulfonyl)ethyl)-1H-indole-2-carboxamide], the figure is 0 to 25%.

Turning to `N=C(N)c1ccc2c(N)c(C(=O)N[C@H]3CC[C@H](N)CC3)n(CCS(=O)(=O)c3ccccc3)c2c1` [Compound I-56, 3-Amino-N-((1r,4r)-4-aminocyclohexyl)-6-carbamimidoyl-1-(2-(phenylsulfonyl)ethyl)-1H-indole-2-carboxamide], the inhibition at 1 µM fell in the range of 25 to 50%. As for `CCOC(=O)Nc1c(C(=O)NC2CCC(N)CC2)n(CCS(=O)(=O)c2ccccc2)c2cc(/C(N)=N/O)ccc12` (centres unmarked) [Compound I-57, Ethyl (2-(((1r,4r)-4-aminocyclohexyl)carbamoyl)-6-((Z)—N′-hydroxycarbamimidoyl)-1-(2-(phenylsulfonyl)ethyl)-1H-indol-3-yl)carbamate], the figure is 0 to 25%.

For `N=C(N)c1ccc2c(N)c(C(=O)NCC3CCCCC3)n(CCS(=O)(=O)c3ccccc3)c2c1` [Compound I-58, 3-Amino-6-carbamimidoyl-N-(cyclohexylmethyl)-1-(2-(phenylsulfonyl)ethyl)-1H-indole-2-carboxamide], the inhibition at 1 µM lay within 0 to 25%. In the case of `N=C(N)c1ccc2cc(C(=O)Nc3ccc(F)cc3)n(Cc3ccc(C(N)=O)cc3)c2c1` [Compound I-59, 6-Carbamimidoyl-1-(4-carbamoylbenzyl)-N-(4-fluorophenyl)-1H-indole-2-carboxamide] it was 0 to 25%. Take `N=C(N)c1ccc2cc(C(=O)Nc3cccc(C(F)(F)F)c3)n(Cc3ccc(C(N)=O)cc3)c2c1` [Compound I-60]: the inhibition at 1 µM was 0 to 25%. With `N=C(N)c1ccc2cc(C(=O)Nc3ccc(C(F)(F)F)cc3)n(Cc3ccc(C(N)=O)cc3)c2c1` [Compound I-61], the inhibition at 1 µM was 0 to 25%. In the case of `N=C(N)c1ccc2cc(C(=O)Nc3cccc(F)c3)n(Cc3ccc(C(N)=O)cc3)c2c1` [Compound I-62] it was 0 to 25%. In the case of `C[C@H](NC(=O)c1cc2ccc(C(=N)N)cc2n1Cc1ccc(C(N)=O)cc1)c1ccc(F)cc1` [Compound I-63], the inhibition at 1 µM fell in the range of 0 to 25%. Regarding `N=C(N)c1ccc2cc(C(=O)Nc3ccc4c(c3)CCC4)n(Cc3ccc(C(N)=O)cc3)c2c1` [Compound I-64], the inhibition at 1 µM was in the range of 0 to 25%.

Consider `N=C(N)c1ccc2cc(C(=O)Nc3ccc(Oc4ccccc4)cc3)n(Cc3ccc(C(N)=O)cc3)c2c1` [Compound I-65], for which the inhibition at 1 µM lay in the range of 0 to 25%.

With `N=C(N)c1ccc2cc(C(=O)Nc3ccc(-c4ccccc4)cc3)n(Cc3ccc(C(N)=O)cc3)c2c1` [Compound I-66], the inhibition at 1 µM lay within 0 to 25%. In the case of `COc1cccc(NC(=O)c2cc3ccc(C(=N)N)cc3n2Cc2ccc(C(N)=O)cc2)c1` [Compound I-67], the inhibition at 1 µM fell in the range of 0 to 25%. Consider `CSc1cccc(NC(=O)c2cc3ccc(C(=N)N)cc3n2Cc2ccc(C(N)=O)cc2)c1` [Compound I-68], for which the inhibition at 1 µM was in the range of 0 to 25%.

As for `COc1ccc(NC(=O)c2cc3ccc(C(=N)N)cc3n2Cc2ccc(C(N)=O)cc2)cc1OC` [Compound I-69], the inhibition at 1 µM is 0 to 25%.

With `C[C@@H](NC(=O)c1cc2ccc(C(=N)N)cc2n1Cc1ccc(C(N)=O)cc1)c1ccccc1` [Compound I-70], the inhibition at 1 µM fell in the range of 0 to 25%. For `Cc1ccc(NC(=O)c2cc3ccc(C(=N)N)cc3n2Cc2ccc(C(N)=O)cc2)cc1O` [Compound I-71], the inhibition at 1 µM is 0 to 25%. As for `C[C@H](NC(=O)c1cc2ccc(C(=N)N)cc2n1Cc1ccc(C(N)=O)cc1)c1ccccc1` [Compound I-72], the figure is 0 to 25%; as for `N=C(N)c1ccc2cc(C(=O)Nc3cccc4cnccc34)n(Cc3ccc(C(N)=O)cc3)c2c1` [Compound I-73], 25 to 50%.

Regarding `N=C(N)c1ccc2cc(C(=O)Nc3ccc4[nH]cnc4c3)n(Cc3ccc(C(N)=O)cc3)c2c1` [Compound I-74], the inhibition at 1 µM was 0 to 25%. In the case of `N=C(N)c1ccc2cc(C(=O)NCc3cccc(F)c3)n(Cc3ccc(C(N)=O)cc3)c2c1` [Compound I-76] it was 0 to 25%. For `N=C(N)c1ccc2cc(C(=O)NCc3ccccc3)n(Cc3ccc(C(N)=O)cc3)c2c1` [Compound I-77], the inhibition at 1 µM was in the range of 0 to 25%. For `N=C(N)c1ccc2cc(C(=O)Nc3ccc(C(=O)N4CCCC4)cc3)n(Cc3ccc(C(N)=O)cc3)c2c1` [Compound I-78], the inhibition at 1 µM fell in the range of 0 to 25%. With `CC(C)c1cccc(NC(=O)c2cc3ccc(C(=N)N)cc3n2Cc2ccc(C(N)=O)cc2)c1` [Compound I-79], the inhibition at 1 µM was 0 to 25%. Take `N=C(N)c1ccc2cc(C(=O)NCc3cc(F)cc(F)c3)n(Cc3ccc(C(N)=O)cc3)c2c1` [Compound I-80]: the inhibition at 1 µM lay within 0 to 25%. In the case of `N=C(N)c1ccc2cc(C(=O)NCCc3ccccc3)n(Cc3ccc(C(N)=O)cc3)c2c1` [Compound I-81] it was 0 to 25%. For `CC(C)[C@H](NC(=O)c1cc2ccc(C(=N)N)cc2n1Cc1ccc(C(N)=O)cc1)c1ccccc1` [Compound I-82], the inhibition at 1 µM fell in the range of 0 to 25%. For the molecule `N=C(N)c1ccc2cc(C(=O)NCc3cccc(C(F)(F)F)c3)n(Cc3ccc(C(N)=O)cc3)c2c1` [Compound I-83], the inhibition at 1 µM was 0 to 25%. In the case of `N=C(N)c1ccc2cc(C(=O)Nc3ccc(Cl)cc3)n(Cc3ccc(C(N)=O)cc3)c2c1` [Compound I-84] it was 0 to 25%; in that of `N=C(N)c1ccc2cc(C(=O)N[C@@H](CO)c3ccccc3)n(Cc3ccc(C(N)=O)cc3)c2c1` [Compound I-85], 0 to 25%.

For `N=C(N)c1ccc2cc(C(=O)N[C@H](CO)c3ccccc3)n(Cc3ccc(C(N)=O)cc3)c2c1` [Compound I-86], the inhibition at 1 µM was in the range of 0 to 25%. In the case of `N=C(N)c1ccc2cc(C(=O)Nc3ccc(F)c(F)c3)n(Cc3ccc(C(N)=O)cc3)c2c1` [Compound I-87] it was 0 to 25%. As for `N=C(N)c1ccc2cc(C(=O)Nc3ccc4ncsc4c3)n(Cc3ccc(C(N)=O)cc3)c2c1` [Compound I-88], the figure is 0 to 25%. As to `N=C(N)c1ccc2cc(C(=O)Nc3cc(F)c(F)c(F)c3)n(Cc3ccc(C(N)=O)cc3)c2c1` [Compound I-89], the inhibition at 1 µM was 0 to 25%. In the case of `N=C(N)c1ccc2cc(C(=O)Nc3ccc(N4CCCC4)cc3)n(Cc3ccc(C(N)=O)cc3)c2c1` [Compound I-90], the inhibition at 1 µM fell in the range of 0 to 25%.

Turning to `N=C(N)c1ccc2cc(C(=O)Nc3cccc4c3CCC4)n(Cc3ccc(C(N)=O)cc3)c2c1` [Compound I-91], the inhibition at 1 µM fell in the range of 0 to 25%. For the molecule `N=C(N)c1ccc2cc(C(=O)Nc3ccc(C(=O)N4CCC4)cc3)n(Cc3ccc(C(N)=O)cc3)c2c1` [Compound I-92], the inhibition at 1 µM lay within 0 to 25%. On to `CN(C)C(=O)COc1cccc(NC(=O)c2cc3ccc(C(=N)N)cc3n2Cc2ccc(C(N)=O)cc2)c1` [Compound I-93], for which the inhibition at 1 µM was 0 to 25%.

The inhibition is the relative decrease from the control value, in per cent.
